Assay [1] relates to serum calcium concentration. The assay is described as follows: Biological assay of calcitonin analogs in vivo: reduction of serum calcium, 2×2 parallel line assay against synthetic salmon calcitonin standard. Also noted: species or system Rats. The following applies: independently determined content of the standard. The method, then:
The biological potency of des-21-threonine-salmon calcitonin was determined by comparing the reduction of serum calcium concentration which followed administration by graded doses of des-Thr^21 -SCT and synthetic salmon calcitonin standard. Rats were divided into four groups of seven animals, and each group was assigned at random to a dose of standard or test solution. Low and high doses were chosen from the linear portion of the dose-response curve. For the salmon calcitonin standard, the values were 0.7 and 2.1 ng. peptide/100 g. body weight (BW). This dose approximates 3 and 9 MU/100 g. BW. Peptides were given by subcutaneous injection (0.2 ml/100 g. BW) and blood was withdrawn 1 hour later for serum calcium determination. Sera are processed and analyzed within two hours of collection. […]. Results were analyzed by a 2×2 parallel line assay [Gaddum, J. H., J. Pharm. Pharmacol., 6, 345 (1953)]. The standard salmon calcitonin used was independently determined to contain greater than 4,000 IU/mg. des-Thr^21 -SCT assayed at 5355 IU/mg.

The conditions of assay [2]: literature values; cited from earlier work.

On to `CC(C)C[C@H](NC(=O)[C@H](CCCCN)NC(=O)CNC(=O)[C@H](CC(C)C)NC(=O)[C@@H](NC(=O)[C@@H]1CSSC[C@H](N)C(=O)N[C@@H](CO)C(=O)N[C@@H](CC(N)=O)C(=O)N[C@@H](CC(C)C)C(=O)N[C@@H](CO)C(=O)N[C@@H]([C@@H](C)O)C(=O)N1)C(C)C)C(=O)N[C@@H](CO)C(=O)N[C@@H](CCC(N)=O)C(=O)N[C@@H](CCC(=O)O)C(=O)N[C@@H](CC(C)C)C(=O)N[C@@H](Cc1c[nH]cn1)C(=O)N[C@@H](CCCCN)C(=O)N[C@@H](CC(C)C)C(=O)N[C@@H](CCC(N)=O)C(=O)N[C@H](C(=O)N[C@@H](Cc1ccc(O)cc1)C(=O)N1CCC[C@H]1C(=O)N[C@@H](CCCNC(=N)N)C(=O)N[C@H](C(=O)N[C@@H](CC(N)=O)C(=O)N[C@H](C(=O)NCC(=O)N[C@@H](CO)C(=O)NCC(=O)N[C@H](C(=O)N1CCC[C@H]1C(N)=O)[C@@H](C)O)[C@@H](C)O)[C@@H](C)O)[C@@H](C)O` [standard salmon calcitonin, Salmon calcitonin], for which the “potency of the standard salmon calcitonin used” value in assay [1] was “greater than 4,000 IU/mg”. Turning to “(1,7-α-L-aminosuberic acid)eel calcitonin”, in assay [2], the hypocalcemic potency result is “about 3400 IU/mg”. As for “eel calcitonin [synthetic eel calcitonin]”, the hypocalcemic potency entry in assay [2] was “around 4300 IU/mg”.

These data come from patent publication US4604237A, “Des-21-threonine-calcitonin” (Armour Pharmaceutical Company, priority 1984, dated 1986).
